These results are taken from paper PMC6541369, “Stereo- and regioselective hydroboration of 1-exo-methylene pyranoses: discovery of aryltriazolylmethyl C-galactopyranosides as selective galectin-1 inhibitors” (Beilstein Journal of Organic Chemistry, 2019).

The structures appear in SMILES notation. Several values for one entry are separate records, joined by “and”; a condition that tells them apart may be missing. Identical values can stand only once. Like-named read-outs stand apart in the source and are kept apart here. A value given as a limit tells only on which side of the number the result lay.

In test [1] the target is T1, galectin-3 (Homo sapiens, UniProt P17931).
T1 construct: made in house
T1 sequence (P17931 whole entry): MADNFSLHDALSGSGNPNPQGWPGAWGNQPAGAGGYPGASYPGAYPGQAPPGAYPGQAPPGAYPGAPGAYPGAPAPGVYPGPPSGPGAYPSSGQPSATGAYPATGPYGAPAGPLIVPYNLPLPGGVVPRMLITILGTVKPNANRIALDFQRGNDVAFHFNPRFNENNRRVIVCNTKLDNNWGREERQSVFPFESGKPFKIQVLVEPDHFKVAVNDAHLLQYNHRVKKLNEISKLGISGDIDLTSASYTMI
Put plainly: competitive fluorescence polarization assay, galectin-3. The class given is binding. Particulars: galectin-3 0.2 µM, fluorescent probe 20 nM; for Kd: read-out: Dissociation constant KD ± SEM, galectin-3. Here is the method: Galectin-1, -3, -4C (C-terminal CRD), -4N (N-terminal CRD), -7, -8C, -8N, -9C, and -9N affinities for (aryltriazolyl)methyl galactopyranosyls 1a–n were determined in a competitive fluorescence polarization titration assay [[…]]. Compounds 1a–n had millimolar or higher affinities for all galectins except for galectins-1 and -3. […] Of particular interest is the different difluorinated aryls 1e–g, which show a reversed selectivity pattern. They display twofold preference for galectin-3 (1g), but their poor affinities limit their use as effective galectin-3 inhibitors. […] Monosaccharide derivatives with somewhat higher affinity for galectin-1 are known; dissociation constants down to 62 µM and selectivity of 8 over galectin-3 [34]. However, these inhibitors are larger and carry double modifications with an anomeric thiophenyl aglycon combined with a heteroaryltriazole moiety at galactose C3 that both form affinity and selectivity-enhancing interactions with galectin-1. Unfortunately, attempts to combine the anomeric 4-fluorophenyltriazolylmethyl moiety of compound 1b with such a galactose C3-thiazolyltriazole substituent reported to enhance affinity for galectin-1 [34] failed in our hands, why other additional substituents to combine with the 4-fluorophenyltriazolylmethyl moiety of compound 1b remain to be discovered.
(§1) Human galectin-1 [36] and galectin-3 [37] were expressed and purified as earlier described. Fluorescence polarization experiments were performed on a PheraStarFS plate reader with software PHERAstar Mars version 2.10 R3 (BMG, Offenburg, Germany). Specific experimental conditions were a galectin-1 concentration of 0.5 µM together with the fluorescent probe (3,3’-dideoxy-3-[4-(fluorescein-5-ylcarbonylaminomethyl)-1H-1,2,3-triazol-1-yl]-3’-(3,5-dimethoxybenzamido)-1,1’-sulfanediyl-di-β-D-galactopyranoside) concentration of 20 nM and a galectin-3 concentration of 0.2 µM together with the fluorescent probe (3,3’-dideoxy-3-[4-(fluorescein-5-ylcarbonylaminomethyl)-1H-1,2,3-triazol-1-yl]-3’-(3,5-dimethoxybenzamido)-1,1’-sulfanediyl-di-β-D-galactopyranoside) concentration of 20 nM, respectively. […] Dissociation constants average and SEM were calculated from two to eight single point measurements showing between 20–80% inhibition.

The target of test [2] is T2, Human galectin-1 (Homo sapiens, UniProt P09382).
T2 construct: made in house
T2 sequence (P09382 whole entry): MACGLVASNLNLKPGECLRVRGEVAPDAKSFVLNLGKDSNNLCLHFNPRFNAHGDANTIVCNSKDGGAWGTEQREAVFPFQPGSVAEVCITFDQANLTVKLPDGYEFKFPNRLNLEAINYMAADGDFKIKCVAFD
Kind of test: competitive fluorescence polarization assay, galectin-1. Type of test: binding. The note with it: for Kd: galectin-1 0.5 µM, fluorescent probe 20 nM, read-out: Dissociation constant KD ± SEM, galectin-1. As for the experimental part:
Galectin-1, -3, -4C (C-terminal CRD), -4N (N-terminal CRD), -7, -8C, -8N, -9C, and -9N affinities for (aryltriazolyl)methyl galactopyranosyls 1a–n were determined in a competitive fluorescence polarization titration assay [[…]].
as §1
(In fluorescence polarisation assays a small probe gives low polarisation when free and higher when bound to something large.)

For test [3], the target named is T1, galectin-3. More on the design: method as in PMID 15889175. The note with it: reference compounds; read-out: Dissociation constant KD, galectin-3; cited from earlier work.
For test [4], the target named is T2, Human galectin-1. Also noted: method as in PMID 15889175. The note with it: reference compounds; read-out: Dissociation constant KD, galectin-1; cited from earlier work.
Setting [5] is: ratio of galectin-3 KD to galectin-1 KD.

For orientation: Kd means the equilibrium constant for the complex coming apart. Turning to `OC[C@H]1O[C@H](Cn2cc(-c3ccccc3)nn2)[C@H](O)[C@@H](O)[C@H]1O` [1a, 1,2-Dideoxy-1-(4-phenyl-1H-1,2,3-triazol-1-yl)-β-D-galactoheptulose], the dissociation constant Kd in test [1] amounted to 870 ± 37 µM; in test [2], 600 ± 48 µM. For the same compound, in test [2] (setting [5]), the “Selectivity Galectin-1/3” value was determined as 1.5.
For the compound `OC[C@H]1O[C@H](Cn2cc(-c3ccc(F)cc3)nn2)[C@H](O)[C@@H](O)[C@H]1O` [1b, 1,2-Dideoxy-1-[4-(4-fluorophenyl)-1H-1,2,3-triazol-1-yl]-β-D-galactoheptulose], the Kd in test [1] came to 710 ± 36 µM; in test [2], 170 ± 2 µM. Further, in test [2] (setting [5]), the “Selectivity Galectin-1/3” value is 4 and 4.2.
In the case of `OC[C@H]1O[C@H](Cn2cc(-c3cccc(F)c3)nn2)[C@H](O)[C@@H](O)[C@H]1O` [1c, 1,2-Dideoxy-1-[4-(3-fluorophenyl)-1H-1,2,3-triazol-1-yl]-β-D-galactoheptulose], the Kd in test [1] is 720 ± 64 µM; in test [2], 1200 ± 120 µM. Also, the “Selectivity Galectin-1/3” value in test [2] (setting [5]) is 0.6.
The matching figures for `OC[C@H]1O[C@H](Cn2cc(-c3ccccc3F)nn2)[C@H](O)[C@@H](O)[C@H]1O` [1d, 1,2-Dideoxy-1-[4-(2-fluorophenyl)-1H-1,2,3-triazol-1-yl]-β-D-galactoheptulose]: 500 ± 23 µM, 390 ± 38 µM and 1.3.
Consider `OC[C@H]1O[C@H](Cn2cc(-c3ccc(F)c(F)c3)nn2)[C@H](O)[C@@H](O)[C@H]1O` [1e, 1,2-Dideoxy-1-[4-(3,4-difluorophenyl)-1H-1,2,3-triazol-1-yl]-β-D-galactoheptulose], for which the Kd in test [1] is 610 ± 160 µM; in test [2], 860 ± 150 µM. Further, in test [2] (setting [5]), the “Selectivity Galectin-1/3” value stood at 0.7.
The matching figures for `OC[C@H]1O[C@H](Cn2cc(-c3cc(F)cc(F)c3)nn2)[C@H](O)[C@@H](O)[C@H]1O` [1f, 1,2-Dideoxy-1-[4-(3,5-difluorophenyl)-1H-1,2,3-triazol-1-yl]-β-D-galactoheptulose]: 790 ± 48 µM, 1100 ± 43 µM and 0.7.
As to `OC[C@H]1O[C@H](Cn2cc(-c3ccc(F)cc3F)nn2)[C@H](O)[C@@H](O)[C@H]1O` [1g, 1,2-Dideoxy-1-[4-(2,4-difluorophenyl)-1H-1,2,3-triazol-1-yl]-β-D-galactoheptulose], the dissociation constant Kd in test [1] stood at 490 ± 55 µM; in test [2], 1100 ± 16 µM. Also, in test [2] (setting [5]), the “Selectivity Galectin-1/3” value was 0.4.
`Cc1ccc(-c2cn(C[C@H]3O[C@H](CO)[C@H](O)[C@H](O)[C@H]3O)nn2)cc1` [1h, 1,2-Dideoxy-1-[4-(4-methylphenyl)-1H-1,2,3-triazol-1-yl]-β-D-galactoheptulose]: in test [1], the “Dissociation constant KD ± SEM, galectin-3” value is “undetectable” and the dissociation constant Kd is greater than 3000 µM. In test [2], the Kd stood at 1000 ± 130 µM. Further, the “Selectivity Galectin-1/3” value in test [2] (setting [5]) is on record as greater than 3.
As for `Cc1cccc(-c2cn(C[C@H]3O[C@H](CO)[C@H](O)[C@H](O)[C@H]3O)nn2)c1` [1i, 1,2-Dideoxy-1-[4-(3-methylphenyl)-1H-1,2,3-triazol-1-yl]-β-D-galactoheptulose], the “Dissociation constant KD ± SEM, galectin-3” value in test [1] is reported as “undetectable”. Moreover, the dissociation constant (Kd) in test [1] was greater than 3000 µM; in test [2] it was 990 ± 23 µM. Besides, in test [2] (setting [5]), the “Selectivity Galectin-1/3” value was greater than 3.
Take `OC[C@H]1O[C@H](Cn2cc(-c3ccc(OC(F)(F)F)cc3)nn2)[C@H](O)[C@@H](O)[C@H]1O` [1j, 1,2-Dideoxy-1-[4-(4-trifluoromethoxyphenyl)-1H-1,2,3-triazol-1-yl]-β-D-galactoheptulose]: the Kd in test [1] was determined as 700 ± 52 µM; in test [2], 500 ± 59 µM. Also, the “Selectivity Galectin-1/3” value in test [2] (setting [5]) is reported as 1.4.
With `OC[C@H]1O[C@H](Cn2cc(-c3ccc(C(F)(F)F)cc3)nn2)[C@H](O)[C@@H](O)[C@H]1O` [1k, 1,2-Dideoxy-1-[4-(4-trifluoromethylphenyl)-1H-1,2,3-triazol-1-yl]-β-D-galactoheptulose], the Kd is 830 ± 38 µM in test [1] and 240 ± 61 µM in test [2]. Moreover, the “Selectivity Galectin-1/3” value in test [2] (setting [5]) is reported as 3.5.
The matching figures for `OC[C@H]1O[C@H](Cn2cc(-c3cccc4ccccc34)nn2)[C@H](O)[C@@H](O)[C@H]1O` [1l, 1,2-Dideoxy-1-(4-naphth-1-yl-1H-1,2,3-triazol-1-yl)-β-D-galactoheptulose]: 470 ± 95 µM, 180 ± 20 µM and 2.6.
The matching figures for `OC[C@H]1O[C@@H](Cn2cc(-c3ccc(-c4ccccc4)cc3)nn2)[C@H](O)[C@@H](O)[C@H]1O` [1m, 1,2-Dideoxy-1-[4-(4-biphenyl)-1H-1,2,3-triazol-1-yl]-β-D-galactoheptulose]: 1200 ± 11 µM, 710 ± 12 µM and 1.7.
The matching figures for `OC[C@H]1O[C@H](Cn2cc(-c3ccc4ccccc4c3)nn2)[C@H](O)[C@@H](O)[C@H]1O` [1n, 1,2-Dideoxy-1-(4-naphth-2-yl-1H-1,2,3-triazol-1-yl)-β-D-galactoheptulose]: 1700 ± 190 µM, 1500 ± 290 µM and 1.1.
With `CO[C@@H]1O[C@H](CO)[C@@H](O[C@@H]2O[C@H](CO)[C@H](O)[C@H](O)[C@H]2O)[C@H](O)[C@H]1O` [compound 12, methyl β-lactoside], in test [2] (reference compounds, ratio from KD values of ref 35), the “Selectivity Galectin-1/3” value is 1.2. Further, the Kd in test [3] is 220 µM; in test [4] it was 190 µM.
